Activity data for 1 molecule are collected here from ChEMBL document CHEMBL6182924, “Discovery of a Novel and Potent MET Transcription Inhibitor Targeting Promoter G-Quadruplex for the Treatment of NSCLC” (J Med Chem, 2025).

Activity calls are given as the source filed them. No cut-off for these calls is given here.

Data set [1] can be described thus: Toxicity in BALB/c mouse xenografted with human A549 cells assessed as heart damage at 20 mg/kg, po administered once a day and measured after 20 days by H and E staining based analysis. Format: organism-based. Particulars: in vivo, 480 h, time 20 day.
For data set [2], the system named is A549. The data set can be described thus: Induction of cell cycle arrest in human A549 cells assessed as accumulation of cells at G2 phase at 2 uM measured for 24 hrs by PI/Rnase staining based flow cytometry (reference value: 13.4 %). The class given is functional. On the technique in general: In flow cytometry, cells or beads pass a laser one at a time.
Data set [3] has as its system NCI-H1975. The data set can be described thus: Induction of apoptosis in human NCI-H1975 cells assessed as late apoptotic cells at 2 uM incubated for 24 hrs by Annexin V-FITC/PI staining based flow cytometry analysis (reference value: 2.27 %). The class given is functional.
In data set [4] the test system is A549. Description: Antiproliferative activity against human A549 cells assessed as inhibition of cell growth incubated for 3 days by CCK-8 assay. Format: functional, cell-based. Particulars: time 3.0 day. A general note: Formazan colour is commonly taken as a measure of viable cells.
Data set [5] can be described thus: Toxicity in BALB/c mouse xenografted with human A549 cells assessed as spleen damage at 20 mg/kg, po administered once a day and measured after 20 days by H and E staining based analysis. Format: organism-based. The settings on record: in vivo, 480 h, time 20 day. For orientation: Xenograft models place foreign cells or tissue in a host animal.
The nature of data set [6]: Acute toxicity in Sprague-Dawley rat assessed as liver damage at 500 to 2000 mg/kg, po measured every 2 days by H and E staining based analysis. The class given is organism-based. The settings on record: in vivo, 48 h, dose 500-2000 mg/kg, time 2 day.
For data set [7], the system named is A549. The data set can be described thus: Induction of apoptosis in human A549 cells assessed as late apoptotic cells at 0.5 uM incubated for 24 hrs by Annexin V-FITC/PI staining based flow cytometry analysis (reference value: 2.56 %). The class given is functional.
Data set [8] in a line: Acute toxicity in Sprague-Dawley rat at 500 to 2000 mg/kg, po measured every 2 days. Format: organism-based. The settings on record: in vivo, 48 h, dose 500-2000 mg/kg, time 2 day.
Data set [9] relates to A549. The data set can be described thus: Induction of apoptosis in human A549 cells assessed as early apoptotic cells at 2 uM incubated for 24 hrs by Annexin V-FITC/PI staining based flow cytometry analysis (reference value: 1.73 %). The class given is functional.
The subject of data set [10] is A549. The data set can be described thus: Induction of cell cycle arrest in human A549 cells assessed as accumulation of cells at G1 phase at 1 uM measured for 24 hrs by PI/Rnase staining based flow cytometry (reference value: 75.2 %). Format: functional.
Data set [11] can be described thus: Toxicity in BALB/c mouse xenografted with human A549 cells assessed as body weight loss at 20 mg/kg, po administered once a day and measured after 20 days. The class given is organism-based. The settings on record: in vivo, 480 h, time 20 day.
Data set [12] deals with NCI-H1975. Description: Antiproliferative activity against MET knockdown human NCI-H1975 cells assessed as inhibition of cell growth by CCK-8 assay. Format: functional, cell-based.
Data set [13] has as its system NCI-H1975. The data set can be described thus: Induction of cell cycle arrest in human NCI-H1975 cells assessed as accumulation of cells at G1 phase at 0.5 uM measured for 24 hrs by PI/Rnase staining based flow cytometry (reference value: 79.2 %). Format: functional.

For `COc1cccc(-c2ccc(-c3nc4c5cccnc5c5ncccc5c4[nH]3)o2)c1`, the Activity entry in [1] is recorded as “Non-toxic”; in the data set on A549 [2] it was 9.06%; in the data set on NCI-H1975 [3], 14.2%; in data set [5], “Non-toxic”; in data set [6], “Non-toxic”; in the data set with A549 [7], 7.9%. Moreover, the Activity result is “Non-toxic” in data set [8]; 12.2% in the data set on A549 [9]; 77.2% in the data set with A549 [10]; “Non-toxic” in data set [11]; 80.5% in the data set on NCI-H1975 [13]. Moreover, the outcome with A549 [4] and with NCI-H1975 [12] was Active.
